According to patent US20240336602A1 (Katholieke Universiteit Leuven, priority 2020, published 2024):

molecular target: T1, mouse TRPM3a2 (mTRPM3) ion channel (Mus musculus, UniProt J9SQF3); experiment: TRPM3 ion channel driven Ca2+ uptake, Fluo-4 AM assay (PS-stimulated, overexpressing flip-in HEK293 cells); type: cell-based; details: PS (50 μM) stimulated, cpds. 500-599
T1 construct: expressed in transfected cells; host or cells: flip-in HEK293
In short: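 Flip-in HEK293 cells overexpressing mTRPM3α2, loaded with Fluo-4 AM, were added to wells with compound plus 50 μM pregnenolone sulfate in Ca2+-containing Krebs buffer and read immediately (ex 485/em 535 nm). Percent inhibition was scaled between PS-plus-vehicle and positive-control-inhibitor signals.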

T1 sequence (J9SQF3 1-1709 isoform J9SQF3-12): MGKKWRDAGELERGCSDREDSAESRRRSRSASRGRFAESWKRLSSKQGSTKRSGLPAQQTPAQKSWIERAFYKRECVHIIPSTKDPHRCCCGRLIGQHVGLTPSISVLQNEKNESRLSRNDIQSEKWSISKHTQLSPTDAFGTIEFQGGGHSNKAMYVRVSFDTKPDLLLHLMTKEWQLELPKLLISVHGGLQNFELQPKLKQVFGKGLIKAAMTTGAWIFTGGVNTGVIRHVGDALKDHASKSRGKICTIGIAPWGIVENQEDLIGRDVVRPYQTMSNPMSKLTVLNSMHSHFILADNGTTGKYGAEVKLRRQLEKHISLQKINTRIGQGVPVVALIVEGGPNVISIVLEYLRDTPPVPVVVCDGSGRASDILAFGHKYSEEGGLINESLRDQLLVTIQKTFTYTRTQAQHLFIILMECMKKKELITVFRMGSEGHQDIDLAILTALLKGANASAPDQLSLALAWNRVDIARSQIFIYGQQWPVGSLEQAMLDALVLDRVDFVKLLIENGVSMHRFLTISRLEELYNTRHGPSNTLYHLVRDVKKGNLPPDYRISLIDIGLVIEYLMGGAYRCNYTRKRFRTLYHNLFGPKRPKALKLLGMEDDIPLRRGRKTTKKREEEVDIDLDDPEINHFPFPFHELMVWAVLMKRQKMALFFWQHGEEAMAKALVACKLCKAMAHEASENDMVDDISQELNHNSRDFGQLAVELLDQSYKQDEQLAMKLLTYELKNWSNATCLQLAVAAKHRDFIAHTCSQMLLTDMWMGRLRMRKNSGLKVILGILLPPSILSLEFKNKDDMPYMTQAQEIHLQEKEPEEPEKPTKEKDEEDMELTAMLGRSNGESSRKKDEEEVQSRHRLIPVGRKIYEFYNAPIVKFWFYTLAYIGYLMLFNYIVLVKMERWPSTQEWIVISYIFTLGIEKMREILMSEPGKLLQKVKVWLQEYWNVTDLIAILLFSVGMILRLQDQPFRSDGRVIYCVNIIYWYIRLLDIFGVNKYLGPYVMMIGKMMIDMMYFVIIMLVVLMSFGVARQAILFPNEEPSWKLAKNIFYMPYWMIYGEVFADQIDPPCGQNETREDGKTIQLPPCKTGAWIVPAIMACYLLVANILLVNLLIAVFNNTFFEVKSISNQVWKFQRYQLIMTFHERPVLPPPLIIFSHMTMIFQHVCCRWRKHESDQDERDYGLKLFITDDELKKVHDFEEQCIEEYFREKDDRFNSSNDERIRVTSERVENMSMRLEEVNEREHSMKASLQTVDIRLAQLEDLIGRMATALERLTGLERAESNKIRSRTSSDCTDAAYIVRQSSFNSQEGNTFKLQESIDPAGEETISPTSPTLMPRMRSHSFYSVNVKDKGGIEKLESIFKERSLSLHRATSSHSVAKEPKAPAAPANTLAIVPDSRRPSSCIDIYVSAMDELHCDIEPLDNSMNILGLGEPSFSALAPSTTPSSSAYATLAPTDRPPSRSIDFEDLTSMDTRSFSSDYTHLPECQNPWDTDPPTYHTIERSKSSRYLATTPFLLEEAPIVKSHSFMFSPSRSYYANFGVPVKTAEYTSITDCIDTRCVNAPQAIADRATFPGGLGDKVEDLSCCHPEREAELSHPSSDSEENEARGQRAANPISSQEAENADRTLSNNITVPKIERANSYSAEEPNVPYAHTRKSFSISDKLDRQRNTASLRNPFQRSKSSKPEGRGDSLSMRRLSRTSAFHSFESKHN

IC50	Compound
≤ 1000 nM	Cc1ncsc1COc1ccc2oc(C)c(C(=O)NCC(N)=O)c2c1 [cpd 503, N-(2-amino-2-oxoethyl)-2-methyl-5-((4-methylthiazol-5-yl)methoxy)benzofuran-3-carboxamide]
1000 to 20000 nM	Cc1ncsc1COc1ccc2oc(C)c(C(=O)NC3(CN)COC3)c2c1 [cpd 507, N-(3-(aminomethyl)oxetan-3-yl)-2-methyl-5-((4-methylthiazol-5-yl)methoxy)benzofuran-3-carboxamide]
1000 to 20000 nM	Cc1oc2ccc(OCc3nccn3C)cc2c1C(=O)NC1(CO)COC1 [cpd 523, N-(3-(hydroxymethyl)oxetan-3-yl)-2-methyl-5-((1-methyl-1H-imidazol-2-yl)methoxy)benzofuran-3-carboxamide]
1000 to 20000 nM	Cc1oc2ccc(OCc3nccn3C)cc2c1C(=O)NC1(C(N)=O)COC1 [cpd 578, N-(3-carbamoyloxetan-3-yl)-2-methyl-5-((1-methyl-1H-imidazol-2-yl)methoxy)benzofuran-3-carboxamide]

same assay, conditions: PS (50 μM) stimulated, cpds. 600-666

Compound	IC50
Cc1oc2ccc(OCc3cccc(=O)n3C)cc2c1C(=O)NC1(CO)CCOCC1 [cpd 610, N-(4-(hydroxymethyl)tetrahydro-2H-pyran-4-yl)-2-methyl-5-((1-methyl-6-oxo-1,6-dihydropyridin-2-yl)methoxy)benzofuran-3-carboxamide]	1000 to 20000 nM
Cc1nccc(COc2ccc3oc(C)c(C(=O)NC4(CO)CCOCC4)c3c2)n1 [cpd 612, N-(4-(hydroxymethyl)tetrahydro-2H-pyran-4-yl)-2-methyl-5-((2-methylpyrimidin-4-yl)methoxy)benzofuran-3-carboxamide]	1000 to 20000 nM
Cc1coc(COc2ccc3oc(C)c(C(=O)NC4(CO)CCOCC4)c3c2)n1 [cpd 616, N-(4-(hydroxymethyl)tetrahydro-2H-pyran-4-yl)-2-methyl-5-((4-methyloxazol-2-yl)methoxy)benzofuran-3-carboxamide]	1000 to 20000 nM
Cc1csc(COc2ccc3oc(C)c(C(=O)NC4(CO)CCOCC4)c3c2)n1 [cpd 617, N-(4-(hydroxymethyl)tetrahydro-2H-pyran-4-yl)-2-methyl-5-((4-methylthiazol-2-yl)methoxy)benzofuran-3-carboxamide]	1000 to 20000 nM
Cc1cnc(COc2ccc3oc(C)c(C(=O)NC4(CO)CCOCC4)c3c2)cn1 [cpd 619, N-(4-(hydroxymethyl)tetrahydro-2H-pyran-4-yl)-2-methyl-5-((5-methylpyrazin-2-yl)methoxy)benzofuran-3-carboxamide]	1000 to 20000 nM
Cc1ccc(COc2ccc3oc(C)c(C(=O)NC4(CO)CCOCC4)c3c2)cn1 [cpd 622, N-(4-(hydroxymethyl)tetrahydro-2H-pyran-4-yl)-2-methyl-5-((6-methylpyridin-3-yl)methoxy)benzofuran-3-carboxamide]	1000 to 20000 nM

The next lines start with the values.

IC50	Compound
1000 to 20000 nM	Cc1ncsc1COc1ccc2oc(C)c(C(=O)NC3(CO)CCOCC3)c2c1C [cpd 603, N-(4-(hydroxymethyl)tetrahydro-2H-pyran-4-yl)-2,4-dimethyl-5-((4-methylthiazol-5-yl)methoxy)benzofuran-3-carboxamide]
1000 to 20000 nM	Cc1oc2ccc(OCc3ncn(C)n3)cc2c1C(=O)NC1(CO)CCOCC1 [cpd 606, N-(4-(hydroxymethyl)tetrahydro-2H-pyran-4-yl)-2-methyl-5-((1-methyl-1H-1,2,4-triazol-3-yl)methoxy)benzofuran-3-carboxamide]
1000 to 20000 nM	Cc1oc2ccc(OCc3cncn3C)cc2c1C(=O)NC1(CO)CCOCC1 [cpd 607, N-(4-(hydroxymethyl)tetrahydro-2H-pyran-4-yl)-2-methyl-5-((1-methyl-1H-imidazol-5-yl)methoxy)benzofuran-3-carboxamide]
1000 to 20000 nM	Cc1oc2ccc(OCc3cccn(C)c3=O)cc2c1C(=O)NC1(CO)CCOCC1 [cpd 609, N-(4-(hydroxymethyl)tetrahydro-2H-pyran-4-yl)-2-methyl-5-((1-methyl-2-oxo-1,2-dihydropyridin-3-yl)methoxy)benzofuran-3-carboxamide]
